From the supplement of paper PMC10883282
± gives the standard deviation of the averaged measurements.

How the values were obtained:
Assay in all cases: relative viability vs DMSO control (72 h) (fraction); higher = more viable cells
A204 = test system: A204
Outline: (§1)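 Serially diluted compound, 2.5 µl from source plates spanning 10 mM to 0.0002 mM, was added 24 h after sarcoma cell lines were seeded in 384-well plates at densities targeting 80–90% confluence. Plates then sat 72 h at 37 °C, 5% CO2, with 0.1% DMSO vehicle and a 5 µM positive control. Relative viability came from ATPLite as percent growth, averaged over up to triplicate wells, and was rescaled with 1 as full and 0 as none.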

SW982 = test system: SW982
Outline: as §1

SW1353 = test system: SW1353
Outline: as §1

G401 = test system: G401
Outline: as §1

SW872 = test system: SW872
Outline: as §1

SK-LMS-1 = test system: SK-LMS-1
Outline: as §1

Cc1cccc(-c2nn3c(c2-c2ccnc4ccc(C(N)=O)cc24)CCC3)n1 [Galunisertib]
relative viability
Conditions | A204 | G401 | SK-LMS-1 | SW872 | SW982 | SW1353
0.00017 µM | 1.01 ± 0.021 | 0.977 ± 0.053 | 1.04 ± 0.025 | 1.05 ± 0.017 | 1 ± 0.021 | 1.01 ± 0.057
0.00051 µM | 1.04 ± 0.028 | 0.93 ± 0.074 | 1 ± 0.032 | 1.05 ± 0.024 | 1.02 ± 0.03 | 0.967 ± 0.06
0.00152 µM | 0.99 ± 0.023 | 1.01 ± 0.053 | 1.01 ± 0.034 | 1 ± 0.036 | 0.965 ± 0.019 | 0.991 ± 0.027
0.00457 µM | 1.03 ± 0.036 | 0.959 ± 0.068 | 0.982 ± 0.042 | 1.02 ± 0.03 | 1 ± 0.044 | 0.954 ± 0.033
0.01372 µM | 0.984 ± 0.044 | 0.974 ± 0.094 | 1.01 ± 0.03 | 0.989 ± 0.02 | 0.999 ± 0.02 | 0.962 ± 0.017
0.04115 µM | 1 ± 0.03 | 0.964 ± 0.028 | 0.982 ± 0.029 | 0.991 ± 0.05 | 0.98 ± 0.035 | 0.926 ± 0.02
0.1235 µM | 1.01 ± 0.072 | 0.984 ± 0.054 | 1.01 ± 0.011 | 0.956 ± 0.021 | 0.974 ± 0.013 | 0.9202 ± 0.0043
0.3704 µM | 1.02 ± 0.051 | 0.971 ± 0.067 | 1 ± 0.026 | 0.96 ± 0.037 | 0.977 ± 0.023 | 0.959 ± 0.039
1.111 µM | 0.996 ± 0.05 | 0.965 ± 0.073 | 1 ± 0.031 | 1 ± 0.022 | 0.988 ± 0.033 | 0.967 ± 0.063
3.333 µM | 0.996 ± 0.067 | 0.9721 ± 0.0059 | 0.953 ± 0.023 | 1.01 ± 0.033 | 0.98 ± 0.027 | 1 ± 0.048
10 µM | 0.936 ± 0.05 | 0.979 ± 0.046 | 0.965 ± 0.031 | 1 ± 0.087 | 1.05 ± 0.094 | 0.976 ± 0.022
